Measurements as given in BigSolDB 2.1.

OCC1(O)OC[C@@H](O)[C@@H](O)[C@H]1O (some centres undefined)
solubility (mole fraction)
Details	283.15 K	288.15 K	293.15 K	298.15 K	303.15 K	308.15 K	313.15 K	318.15 K	323.15 K
in 2-butanone	0.000516	0.000587	0.000946	0.00144	0.00198	0.00264	0.0033	0.00464	0.00552
in acetone	0.000606	0.000752	0.00104	0.00158	0.00219	0.00299	0.00376	0.0049	–
in acetonitrile	0.000226	0.000283	0.000367	0.00047	0.000627	0.000861	0.00109	0.00139	0.00176
in ethanol	0.00369	0.00446	0.00588	0.00746	0.00899	0.0116	0.0147	0.018	0.0222
in ethyl acetate	0.00077	0.000993	0.00128	0.00173	0.00217	0.00257	0.00327	0.00379	0.00449
in ethyl formate	0.000243	0.000356	0.000493	0.000697	0.00109	0.00151	0.00193	0.00275	0.00346
in isopropanol	0.00147	0.00193	0.00254	0.00368	0.00507	0.00673	0.00893	0.0112	0.0143
in methanol	0.0162	0.0178	0.0212	0.0273	0.0356	0.0512	0.0705	0.0895	0.116
in methyl acetate	0.000227	0.000298	0.000389	0.000619	0.000851	0.00105	0.00139	0.00187	0.00231
in n-butanol	0.00111	0.00125	0.0018	0.0024	0.00329	0.00456	0.00579	0.00747	0.00952
in n-butyl acetate	0.000243	0.000359	0.000443	0.000593	0.000796	0.001	0.00131	0.00165	0.002
in n-hexanol	0.000659	0.000835	0.000961	0.00143	0.00216	0.00301	0.004	0.00509	0.00652
in n-pentanol	0.00133	0.00134	0.0017	0.00202	0.00269	0.00356	0.00448	0.00561	0.00721
in n-propanol	0.0015	0.00191	0.00234	0.00335	0.00446	0.00567	0.00751	0.00956	0.0121
in sec-butanol	0.001	0.00178	0.00238	0.00324	0.0045	0.00617	0.0079	0.0105	0.0135
